Patent publication US20240228482A1, “COMPOUNDS, COMPOSITIONS AND METHODS OF TREATING CANCER” (HOTSPOT THERAPEUTICS, INC., priority 2021, published 2024)
Where two headings read alike, the source gives them in different places.

Target: T1, CBL-B (Homo sapiens, UniProt Q13191)
T1 construct: GST
Assay: CBL-B TR-FRET IC50 screening (E1/E2 ubiquitination, Biotin-Ubiquitin, Anti GST-Tb donor / Streptavidin-d2 acceptor)
Type: biochemical

[1] = CBL-B 10 nM final, 11-point titration from 100 uM, binned A-F, read-out: CBL-B TR-FRET activity IC50
[2] = second part of Table 2 (head 'Patent Cmpd No / Updated Activity'), same CBL-B TR-FRET IC50 bins A-F, read-out: Updated Activity

T1 sequence (Q13191 whole entry): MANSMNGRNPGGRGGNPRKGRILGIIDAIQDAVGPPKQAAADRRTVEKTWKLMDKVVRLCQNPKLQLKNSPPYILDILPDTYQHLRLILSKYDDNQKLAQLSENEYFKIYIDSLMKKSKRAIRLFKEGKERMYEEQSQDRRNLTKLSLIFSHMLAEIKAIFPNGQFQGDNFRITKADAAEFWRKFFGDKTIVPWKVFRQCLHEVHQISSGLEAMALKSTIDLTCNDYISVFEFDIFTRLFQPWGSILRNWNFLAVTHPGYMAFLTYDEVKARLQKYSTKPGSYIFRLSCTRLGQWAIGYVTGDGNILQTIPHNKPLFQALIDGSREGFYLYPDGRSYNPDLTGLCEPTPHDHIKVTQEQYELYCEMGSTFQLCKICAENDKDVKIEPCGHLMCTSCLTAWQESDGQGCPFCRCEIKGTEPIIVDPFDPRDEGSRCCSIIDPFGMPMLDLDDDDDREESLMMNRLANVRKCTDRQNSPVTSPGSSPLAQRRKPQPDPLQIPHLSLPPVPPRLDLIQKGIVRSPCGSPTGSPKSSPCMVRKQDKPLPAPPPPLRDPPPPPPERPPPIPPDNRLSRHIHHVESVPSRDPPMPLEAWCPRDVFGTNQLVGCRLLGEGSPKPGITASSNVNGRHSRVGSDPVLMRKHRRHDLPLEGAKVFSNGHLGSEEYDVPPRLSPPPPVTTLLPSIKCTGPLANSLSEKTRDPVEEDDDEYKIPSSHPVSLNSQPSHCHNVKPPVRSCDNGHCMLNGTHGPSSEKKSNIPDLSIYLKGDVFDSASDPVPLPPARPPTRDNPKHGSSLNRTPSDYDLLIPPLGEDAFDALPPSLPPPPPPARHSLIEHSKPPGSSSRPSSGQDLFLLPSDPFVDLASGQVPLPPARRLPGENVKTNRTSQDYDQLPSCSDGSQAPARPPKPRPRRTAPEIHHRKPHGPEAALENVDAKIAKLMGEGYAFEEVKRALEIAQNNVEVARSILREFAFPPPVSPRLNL

SMILES | IC50 [1] [µM] | IC50 [2] [µM]
COCCn1cc(C)c([C@H](c2cccc(-n3cc4c(C(F)(F)F)cc(CN5CCC[C@H](C)C5)cn4c3=O)c2)C2CCC2)n1 (single isomer, unassigned) [Compound 336] | > 10 | 
C[C@H]1CCCN(Cc2cc(C(F)(F)F)c3cn(-c4cccc([C@@H](c5nncn5C)C5CC(F)(F)C5)c4)c(=O)n3c2)C1 (single isomer, unassigned) [Compound 342] | > 10 | 
C[C@H]1CCCN(Cc2cc(C(F)(F)F)c3cn(-c4cccc([C@H](c5nncn5C)C5CC(F)(F)C5)c4)c(=O)n3c2)C1 (single isomer, unassigned) [Compound 343] | 0.1 to 0.3 | 
C[C@H]1CCCN(Cc2cc(C(F)(F)F)c3cn(-c4cccc([C@@H](c5nncn5C)[C@H]5C[C@@H](CO)C5)c4)c(=O)n3c2)C1 (single isomer, unassigned) [Compound 353] | > 10 | 
C[C@H]1CCCN(Cc2cc(C(F)(F)F)c3cn(-c4cccc([C@H](c5nncn5C)[C@H]5C[C@H](CO)C5)c4)c(=O)n3c2)C1 (single isomer, unassigned) [Compound 354] | 0.301 to 1 | 
C[C@H]1CCCN(Cc2cc(C(F)(F)F)c3cn(-c4cccc([C@@H](c5nncn5C)[C@H]5C[C@H](CO)C5)c4)c(=O)n3c2)C1 (single isomer, unassigned) [Compound 355] | > 10 | 
C[C@H]1CCCN(Cc2cc(C(F)(F)F)c3cn(-c4cccc([C@H](c5nncn5C)[C@H]5C[C@@H](CO)C5)c4)c(=O)n3c2)C1 (single isomer, unassigned) [Compound 356] | < 0.1 | 
C[C@H]1CCCN(Cc2cc(C(F)(F)F)c3cn(-c4cccc([C@H](c5nncn5C)C5CCOCC5)c4)c(=O)n3c2)C1 (single isomer, unassigned) [Compound 358] | > 10 | 
C[C@H]1CCCN(Cc2cc(C(F)(F)F)c3cn(-c4cccc([C@@H](c5nncn5C)C5CCOCC5)c4)c(=O)n3c2)C1 (single isomer, unassigned) [Compound 359] | > 10 | 
Cc1cn(CCO)nc1[C@@H](c1cccc(-n2cc3c(C(F)(F)F)cc(CN4CCC[C@H](C)C4)cn3c2=O)c1)C1CCC1 (single isomer, unassigned) [Compound 360] | > 10 | 
Cc1cn(CCO)nc1[C@H](c1cccc(-n2cc3c(C(F)(F)F)cc(CN4CCC[C@H](C)C4)cn3c2=O)c1)C1CCC1 (single isomer, unassigned) [Compound 361] | > 10 | 
COC1(C[C@@H](c2cccc(-n3cc4c(C(F)(F)F)cc(CN5CCC[C@H](C)C5)cn4c3=O)c2)c2nncn2C)CC1 (single isomer, unassigned) [Compound 365] | 1 to 3 | 
COC1(C[C@H](c2cccc(-n3cc4c(C(F)(F)F)cc(CN5CCC[C@H](C)C5)cn4c3=O)c2)c2nncn2C)CC1 (single isomer, unassigned) [Compound 366] | > 10 | 
C[C@H]1CCCN(Cc2cc(C(F)(F)F)c3cn(-c4cccc([C@H](c5nncn5C)N5CCC5)c4)c(=O)n3c2)C1 (single isomer, unassigned) [Compound 367] | 3 to 10 | 
C[C@H]1CCCN(Cc2cc(C(F)(F)F)c3cn(-c4cccc([C@@H](c5nncn5C)N5CCC5)c4)c(=O)n3c2)C1 (single isomer, unassigned) [Compound 368] | < 0.1 | 
Cc1sc(C#N)nc1[C@@H](c1cccc(-n2cc3c(C(F)(F)F)cc(CN4CCC[C@H](C)C4)cn3c2=O)c1)C1CCC1 (single isomer, unassigned) [Compound 369] | > 10 | 
C[C@H]1CCCN(Cc2cc(C(F)(F)F)c3cn(-c4cccc([C@H](c5nc(C#N)cs5)C5CCC5)c4)c(=O)n3c2)C1 (single isomer, unassigned) [Compound 370] | > 10 | 
Cc1sc(C#N)nc1[C@H](c1cccc(-n2cc3c(C(F)(F)F)cc(CN4CCC[C@H](C)C4)cn3c2=O)c1)C1CCC1 (single isomer, unassigned) [Compound 371] | > 10 | 
C[C@H]1CCCN(Cc2cc(C(F)(F)F)c3cn(-c4cccc([C@@H](c5nc(C#N)cs5)C5CCC5)c4)c(=O)n3c2)C1 (single isomer, unassigned) [Compound 372] | > 10 | 
Cc1cnoc1[C@H](c1cccc(-n2cc3c(C(F)(F)F)cc(CN4CCC[C@H](C)C4)cn3c2=O)c1)C1CCC1 (single isomer, unassigned) [Compound 383] |  | > 10
Cc1cnoc1[C@@H](c1cccc(-n2cc3c(C(F)(F)F)cc(CN4CCC[C@H](C)C4)cn3c2=O)c1)C1CCC1 (single isomer, unassigned) [Compound 384] |  | > 10
COCc1nc([C@@H](c2cccc(-n3cc4c(C(F)(F)F)cc(CN5CCC[C@H](C)C5)cn4c3=O)c2)C2CCC2)c(C)s1 (single isomer, unassigned) [Compound 385] |  | > 10
COCc1nc([C@H](c2cccc(-n3cc4c(C(F)(F)F)cc(CN5CCC[C@H](C)C5)cn4c3=O)c2)C2CCC2)c(C)s1 (single isomer, unassigned) [Compound 386] |  | > 10
COC1CN([C@H](c2cccc(-n3cc4c(C(F)(F)F)cc(CN5CCC[C@H](C)C5)cn4c3=O)c2)c2nncn2C)C1 (single isomer, unassigned) [Compound 387] |  | > 10

SMILES | IC50 [1] [µM] | IC50 [2] [µM]
COC1CN([C@@H](c2cccc(-n3cc4c(C(F)(F)F)cc(CN5CCC[C@H](C)C5)cn4c3=O)c2)c2nncn2C)C1 (single isomer, unassigned) [Compound 388] |  | > 10
COCc1csc([C@@H](c2cccc(-n3cc4c(C(F)(F)F)cc(CN5CCC[C@H](C)C5)cn4c3=O)c2)C2CCC2)n1 (single isomer, unassigned) [Compound 389] |  | > 10
COCc1csc([C@H](c2cccc(-n3cc4c(C(F)(F)F)cc(CN5CCC[C@H](C)C5)cn4c3=O)c2)C2CCC2)n1 (single isomer, unassigned) [Compound 390] |  | > 10
Cc1sc(CO)nc1[C@@H](c1cccc(-n2cc3c(C(F)(F)F)cc(CN4CCC[C@H](C)C4)cn3c2=O)c1)C1CCC1 (single isomer, unassigned) [Compound 391] |  | > 10
Cc1sc(CO)nc1[C@H](c1cccc(-n2cc3c(C(F)(F)F)cc(CN4CCC[C@H](C)C4)cn3c2=O)c1)C1CCC1 (single isomer, unassigned) [Compound 392] |  | > 10
COC(=O)N1CCC[C@H](c2cc(C(F)(F)F)c3cn(-c4cccc([C@H](c5nncn5C)C5CCC5)c4)c(=O)n3c2)C1 (single isomer, unassigned) [Compound 393] |  | < 0.1
COC(=O)N1CCC[C@@H](c2cc(C(F)(F)F)c3cn(-c4cccc([C@H](c5nncn5C)C5CCC5)c4)c(=O)n3c2)C1 (single isomer, unassigned) [Compound 394] |  | 0.1 to 0.3
CC(=O)N1CCC[C@H](c2cc(C(F)(F)F)c3cn(-c4cccc([C@H](c5nncn5C)C5CCC5)c4)c(=O)n3c2)C1 (single isomer, unassigned) [Compound 396] |  | 0.1 to 0.3
CC(=O)N1CCC[C@@H](c2cc(C(F)(F)F)c3cn(-c4cccc([C@H](c5nncn5C)C5CCC5)c4)c(=O)n3c2)C1 (single isomer, unassigned) [Compound 397] |  | 0.1 to 0.3
COCC[C@H](c1cccc(-n2cc3c(C(F)(F)F)cc(CN4CCC[C@H](C)C4)cn3c2=O)c1)c1nncn1C (single isomer, unassigned) [Compound 399] |  | < 0.1
COCC[C@@H](c1cccc(-n2cc3c(C(F)(F)F)cc(CN4CCC[C@H](C)C4)cn3c2=O)c1)c1nncn1C (single isomer, unassigned) [Compound 400] |  | > 10
C[C@H]1CCCN(Cc2cc(C(F)(F)F)c3cn(-c4cccc([C@@H](CC5(C#N)CC5)c5nncn5C)c4)c(=O)n3c2)C1 (single isomer, unassigned) [Compound 405] |  | > 10
C[C@H]1CCCN(Cc2cc(C(F)(F)F)c3cn(-c4cccc([C@H](c5nncn5C)N5CC(O)C5)c4)c(=O)n3c2)C1 (single isomer, unassigned) [Compound 406] |  | 0.1 to 0.3
C[C@H]1CCCN(Cc2cc(C(F)(F)F)c3cn(-c4cccc([C@@H](c5nncn5C)N5CC(O)C5)c4)c(=O)n3c2)C1 (single isomer, unassigned) [Compound 407] |  | > 10
COC(=O)N1CC[C@H](c2cc(C(F)(F)F)c3cn(-c4cccc([C@H](c5nncn5C)C5CCC5)c4)c(=O)n3c2)C1 (single isomer, unassigned) [Compound 408] |  | < 0.1
COC(=O)N1CC[C@@H](c2cc(C(F)(F)F)c3cn(-c4cccc([C@H](c5nncn5C)C5CCC5)c4)c(=O)n3c2)C1 (single isomer, unassigned) [Compound 409] |  | < 0.1
COCC(COC)[C@H](c1cccc(-n2cc3c(C(F)(F)F)cc(CN4CCC[C@H](C)C4)cn3c2=O)c1)c1nncn1C (single isomer, unassigned) [Compound 410] |  | > 10
COCC(COC)[C@@H](c1cccc(-n2cc3c(C(F)(F)F)cc(CN4CCC[C@H](C)C4)cn3c2=O)c1)c1nncn1C (single isomer, unassigned) [Compound 411] |  | > 10
C[C@H]1CCCN(Cc2cc(C(F)(F)F)c3cn(-c4cccc([C@]5(c6nncn6C)C[C@@](C)(O)C5)c4)c(=O)n3c2)C1 (single isomer, unassigned) [Compound 417] |  | < 0.1
C[C@H]1CCCN(Cc2cc(C(F)(F)F)c3cn(-c4cccc([C@]5(c6nncn6C)C[C@](C)(O)C5)c4)c(=O)n3c2)C1 (single isomer, unassigned) [Compound 418] |  | 3 to 10
Cc1cn(CC#N)nc1[C@@H](c1cccc(-n2cc3c(C(F)(F)F)cc(CN4CCC[C@H](C)C4)cn3c2=O)c1)C1CCC1 (single isomer, unassigned) [Compound 419] |  | > 10
Cc1cn(CC#N)nc1[C@H](c1cccc(-n2cc3c(C(F)(F)F)cc(CN4CCC[C@H](C)C4)cn3c2=O)c1)C1CCC1 (single isomer, unassigned) [Compound 420] |  | > 10
CC(=O)N1CC[C@H](c2cc(C(F)(F)F)c3cn(-c4cccc([C@H](c5nncn5C)C5CCC5)c4)c(=O)n3c2)C1 (single isomer, unassigned) [Compound 421] |  | < 0.1
